Measured values reported in patent US9145392B2, “Imidazole amines as modulators of kinase activity” (Merck Patent GmbH, priority 2011, dated 2015).

Legend:
[1] = target: His-AKT (Full Length) (Homo sapiens (Human), UniProt P31749); test: AKT enzyme assay; type: biochemical; details: read-out: IC50 AKT
[2] = target: P70S6K (T412E mutant) (Homo sapiens (Human), UniProt P23443, T412E); test: P70S6K enzyme assay; type: biochemical; details: read-out: IC50 p70S6K
Procedure, shortened: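 Read-out is the substrate/phosphopeptide ratio from mobility-shift electrophoresis on a LabChip 3000.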

P70S6K (T412E mutant), sequence (P23443 whole entry T412E): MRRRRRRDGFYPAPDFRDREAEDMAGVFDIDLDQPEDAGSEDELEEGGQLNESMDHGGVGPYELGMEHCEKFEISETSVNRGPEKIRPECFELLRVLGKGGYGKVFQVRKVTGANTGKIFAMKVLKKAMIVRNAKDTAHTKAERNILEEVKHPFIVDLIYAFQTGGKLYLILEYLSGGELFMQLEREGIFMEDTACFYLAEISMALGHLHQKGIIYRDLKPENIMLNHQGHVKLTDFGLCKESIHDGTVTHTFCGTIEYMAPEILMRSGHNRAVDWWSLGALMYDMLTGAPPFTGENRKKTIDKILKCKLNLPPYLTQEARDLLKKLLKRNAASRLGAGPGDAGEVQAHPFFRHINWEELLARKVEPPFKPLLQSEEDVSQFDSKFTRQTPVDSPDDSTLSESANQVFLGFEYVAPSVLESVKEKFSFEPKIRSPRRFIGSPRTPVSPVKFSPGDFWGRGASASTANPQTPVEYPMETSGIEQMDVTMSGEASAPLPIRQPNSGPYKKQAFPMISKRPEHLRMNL
His-AKT (Full Length), sequence (P31749 whole entry): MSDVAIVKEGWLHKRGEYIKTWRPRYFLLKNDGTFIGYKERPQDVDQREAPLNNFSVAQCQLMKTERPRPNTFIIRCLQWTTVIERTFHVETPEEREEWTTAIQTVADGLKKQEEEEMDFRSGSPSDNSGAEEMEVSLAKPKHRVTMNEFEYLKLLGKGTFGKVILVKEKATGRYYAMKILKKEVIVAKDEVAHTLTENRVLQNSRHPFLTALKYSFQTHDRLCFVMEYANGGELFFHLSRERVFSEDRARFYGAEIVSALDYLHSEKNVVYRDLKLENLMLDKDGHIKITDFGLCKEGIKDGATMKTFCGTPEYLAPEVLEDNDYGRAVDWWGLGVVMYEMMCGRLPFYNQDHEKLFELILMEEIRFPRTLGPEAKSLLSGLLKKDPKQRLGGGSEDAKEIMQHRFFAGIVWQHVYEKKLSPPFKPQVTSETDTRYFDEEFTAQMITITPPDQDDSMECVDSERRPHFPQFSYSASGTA

| IC50 [1] [nM] | IC50 [2] [nM] | Structure (SMILES) |
| --- | --- | --- |
| 16 | 3.4 | Cc1cc(-c2cn(CC3CNC3)c(C3CCC(c4ncnc(N)c4C(C)C)CC3)n2)ccc1F (stereo not shown) [Compound 194, 6-(4-(1-(azetidin-3-ylmethyl)-4-(4-fluoro-3-methylphenyl)-1H-imidazol-2-yl)cyclohexyl)-5-isopropylpyrimidin-4-amine] |
| > 1000 | 16 | CCc1c(N)ncnc1N1CCC(c2nc(-c3ccc(F)cc3)cn2CCN2CCOCC2)CC1 [Compound 195, 5-Ethyl-6-{4-[4-(4-fluoro-phenyl)-1-(2-morpholin-4-yl-ethyl)-1H-imidazol-2-yl]-piperidin-1-yl}-pyrimidin-4-ylamine] |
| 370 | 5.5 | CCc1c(N)ncnc1N1CCC(c2nc(-c3ccc(F)c(F)c3)cn2CCN2CCOCC2)CC1 [Compound 196, 6-{4-[4-(3,4-Difluoro-phenyl)-1-(2-morpholin-4-yl-ethyl)-1H-imidazol-2-yl]-piperidin-1-yl}-5-ethyl-pyrimidin-4-ylamine] |
| 130 | 6.3 | CCc1c(N)ncnc1N1CCC(c2nc(-c3ccc(F)cc3)cn2CCN2CC3(COC3)C2)CC1 [Compound 197, 5-Ethyl-6-(4-{4-(4-fluoro-phenyl)-1-[2-(2-oxa-6-aza-spiro[3.3]hept-6-yl)-ethyl]-1H-imidazol-2-yl}-piperidin-1-yl)-pyrimidin-4-ylamine] |
| 255 | 11 | CCc1c(N)ncnc1N1CCC(c2nc(-c3ccc(F)c(F)c3)cn2CCN2CC3(COC3)C2)CC1 [Compound 198, 6-(4-{4-(3,4-Difluoro-phenyl)-1-[2-(2-oxa-6-aza-spiro[3.3]hept-6-yl)-ethyl]-1H-imidazol-2-yl}-piperidin-1-yl)-5-ethyl-pyrimidin-4-ylamine] |
| 385 | 12 | CCc1c(N)ncnc1N1CCC(c2nc(-c3ccc(F)c(F)c3)cn2CCN2CC(F)C2)CC1 [Compound 199, 6-(4-{4-(3,4-Difluoro-phenyl)-1-[2-(3-fluoro-azetidin-1-yl)-ethyl]-1H-imidazol-2-yl}-piperidin-1-yl)-5-ethyl-pyrimidin-4-ylamine] |
| 640 | 21 | CCc1c(N)ncnc1N1CCC(c2nc(-c3ccc(F)cc3)cn2CCN2CC(F)C2)CC1 [Compound 200, 5-Ethyl-6-{4-[1-[2-(3-fluoro-azetidin-1-yl)-ethyl]-4-(4-fluoro-phenyl)-1H-imidazol-2-yl]-piperidin-1-yl}-pyrimidin-4-ylamine] |
| > 1000 | 16 | CCc1c(N)ncnc1N1CCC(c2nc(-c3ccc(F)cc3)cn2CCN2CCC3(COC3)C2)CC1 [Compound 201, 5-Ethyl-6-(4-{4-(4-fluoro-phenyl)-1-[2-(2-oxa-6-aza-spiro[3.4]oct-6-yl)-ethyl]-1H-imidazol-2-yl}-piperidin-1-yl)-pyrimidin-4-ylamine] |
| 89 | 9 | CCc1c(N)ncnc1N1CCC(c2nc(-c3ccc(F)c(F)c3)cn2CCN2CCC3(COC3)C2)CC1 [Compound 202, 6-(4-{4-(3,4-Difluoro-phenyl)-1-[2-(2-oxa-6-aza-spiro[3.4]oct-6-yl)-ethyl]-1H-imidazol-2-yl}-piperidin-1-yl)-5-ethyl-pyrimidin-4-ylamine] |
| 2500 | 30 | CCc1c(N)ncnc1N1CCC(c2nc(-c3ccc(F)c(F)c3)cn2CCN2CCC23COC3)CC1 [Compound 203, 6-(4-{4-(3,4-Difluoro-phenyl)-1-[2-(6-oxa-1-aza-spiro[3.3]hept-1-yl)-ethyl]-1H-imidazol-2-yl}-piperidin-1-yl)-5-ethyl-pyrimidin-4-ylamine] |
| 3600 | 37 | CCc1c(N)ncnc1N1CCC(c2nc(-c3ccc(F)cc3)cn2CCN2CCC23COC3)CC1 [Compound 204, 5-Ethyl-6-(4-{4-(4-fluoro-phenyl)-1-[2-(6-oxa-1-aza-spiro[3.3]hept-1-yl)-ethyl]-1H-imidazol-2-yl}-piperidin-1-yl)-pyrimidin-4-ylamine] |
